Measured values as given in US6284754A, “Pharmaceutical compositions containing 1-oleylazacycloheptan-2-one as enhancing agent of transport across biological membranes” (Schwarz Pharma AG, priority 1992, dated 2001).
pIC50: −log10 of the molar value.

Experiments:
[1] = test system: human dermal fibroblasts; assay: Collagen contraction test (in vitro skin cell toxicity screening); format: cell-based; settings: for pIC50: Fibroblast, collagen sheets containing human dermal fibroblasts, read-out: IC50 (concentration at which shrinkage is 50% of the control); for toxicity (in words): compared with other azones
Procedure: Skin toxicity tests were performed using the so-called collagen contraction test (Ponec et al. Journal of Pharmaceutical Sciences Vol. 78, No. 9, September 1989 and Vol. 79, No. 4, April 1990). […] The concentration of the agent, at which the shrinkage is 50% of the control, is taken as the IC50, the "50% inhibition level".

[2] = sole anti-inflammatory agent, topical on human or animal skin, about 10 to 100%; cited from earlier work
[3] = Freeze-fracture electron microscopy of pretreated stratum corneum; settings: 24 h pretreatment with solution in propylene glycol
Procedure: For freeze-fracture electron microscopy stratum corneum samples were pretreated during 24 hours with solutions of azacycloheptanones in propylene glycol by applying about 200 microliter per cm^2 of the solution on the apical surface. Samples were then snapfrozen in melting nitrogen (method according to Umrath, J. Microsc. 101: 103 (1974)), cross-fractured (Holman et al., J. Invest. Dermatol, 94: 332 (1990) )in a Balzers Freeze Fracture apparatus (Balzers 400 BAF) at high vacuum. The fracture surfaces were then shadowed with Pt and overcast with a layer of carbon. Upon thawing, the samples were cleaned to obtain the surface replicas. These were scooped up on copper grids and examined in a transmission electron microscope (Philips 401, operated at 80 kV).

[4] = Differential thermal analysis (DTA) of pretreated stratum corneum; set-up: species or system human; settings: 24 h pretreatment in enhancer solution
Procedure: For differential thermal analysis human stratum corneum samples were pretreated (after prehydration) by submersion in the in test 1 described enhancer solutions for 24 hours, using untreated prehydrated stratum corneum samples as controls. Differential thermal analysis of ca. 20 mg samples was then performed on a differential scanning calorimeter (Maple).

[5] = Skin transport kinetics: nitroglycerin penetration through stratum corneum pretreated with 1-alkylazacycloheptan-2-ones; format: in vitro ADME, human; settings: compared with other 1-alkylazacycloheptan-2-ones
Procedure: Human stratum corneum samples (18 mm in diameter) were obtained from fresh human skin (abdomen) by trypsinization. The stratum corneum samples were firstly prehydrated at 95% relative humidity (RH) over a saturated disodium hydrogen phosphate solution, then either submerged for 24 hours at 34° C. with 200 microliter of a 10% solution of an alkyl-aza-cycloheptan-one in propylene glycol by topical application, or directly used for a diffusion study.
The stratum corneum samples were subsequently sandwiched between silastic sheetings (127 micrometer thick silicone membranes, Dow Corning) which have been proven not to control the transport rate of the model drug used in the study, nitroglycerin. The thus obtained sandwiches were clamped in two-chamber flow-through diffusion cells and subjected to 24 hours diffusion experiments. The donor compartment having a volume of 16μl was flushed with a 0.05% nitroglycerin solution at a pumping rate of 35 ml/hr. […] Fractions of the acceptor fluid were collected at 1 hour intervals, and nitroglycerin was detected using a reversed phase HPLC procedure (chrom-sphere C18 100×30 mm column eluted at 22° C. (methanol:water=1:1) at a 1.1 ml/min flow rate (Spectroflow 400, Kratos.). The absorbance at 201 nm of the effluent was monitored on Waters 450 var. wavelength detector).

| SMILES | pIC50 [1] | anti-inflammatory action, topical (in words) [2] | toxicity (in words) ([1]; listed as 1-oleyl-azacyclo-heptan-2-one) | toxicity (in words) ([1]; listed as 1-oleylazacycloheptan-2-one) | toxicity (in words) ([1]; listed as oleyl azone) | electron microscopic findings in stratum corneum (in words) [3] | influence on gel-liquid transition temperature and transition enthalpy (in words) [4] | transition enthalpy of the intercellular lipids (gel-liquid transition) ([4]; control 7 J.g-1) [J/g] | enhancement of nitroglycerin transport / percutaneous absorption (in words) [5] | enhancement of nitroglycerin transport / percutaneous absorption (in words) ([5]; listed as oleyl derivative) |
| --- | --- | --- | --- | --- | --- | --- | --- | --- | --- | --- |
| CCCCCCCCCCCCN1CCCCCC1=O [C12, 1-dodecylazacycloheptan-2-one, reference compound] | 3.62 | capable of temporarily reducing the signs and symptoms of inflammation |  |  |  |  |  |  |  |  |
| CCCCCCCC/C=C\CCCCCCCCN1CCCCCC1=O [C18, 1-oleylazacycloheptan-2-one] | 3.10 |  | moderately toxic | less toxic than the 1-dodecylazacycloheptan-2-one | almost the least toxic azone among the effective enhancers (from C10 up to C18), and less toxic than C12 azone | penetrates deeply into the stratum corneum and induces the separation of a non-lamellar phase | strongly influences both the gel-liquid transition temperature of the intercellular lipids, and the corresponding transition enthalpy | 3.3 | more potent enhancer for percutaneous absorption than the 1-alkylazacycloheptan-2-ones according to the prior art | by far the most potent enhancer with respect to nitroglycerin transport |
